Measured values published in patent publication US11052026B2, “Multi-capsule containing pigment for cosmetic material or functional component, and method for producing same” (CHEMLAND. CO., LTD., priority 2017, dated 2021).

Assay: Residual rate of functional component during storage at 35° C. for 16 weeks (Example 1)
Type: physicochemical
Conditions: stored at 35° C.
Protocol: The residual rates of the functional components were compared while the cosmetic functional multi-capsule in Preparation Example 3 was stored at 35° C.

Compound | Ascorbic Acid Residual Rate (storage period 2 weeks) [%] | Ascorbic Acid Residual Rate (storage period 4 weeks) [%] | Ascorbic Acid Residual Rate (storage period 6 weeks) [%] | Ascorbic Acid Residual Rate (storage period 8 weeks) [%] | Ascorbic Acid Residual Rate (storage period 10 weeks) [%] | Ascorbic Acid Residual Rate (storage period 12 weeks) [%] | Ascorbic Acid Residual Rate (storage period 14 weeks) [%] | Ascorbic Acid Residual Rate (storage period 16 weeks) [%] | Functional Component Residual Rate (storage period 2 weeks) [%] | Functional Component Residual Rate (storage period 4 weeks) [%] | Functional Component Residual Rate (storage period 6 weeks) [%] | Functional Component Residual Rate (storage period 8 weeks) [%] | Functional Component Residual Rate (storage period 10 weeks) [%] | Functional Component Residual Rate (storage period 12 weeks) [%] | Functional Component Residual Rate (storage period 14 weeks) [%] | Functional Component Residual Rate (storage period 16 weeks) [%]
O=C1O[C@H]([C@@H](O)CO)C(O)=C1O [compound 1, ascorbic acid] | 97.2 | 95.3 | 92.9 | 90 | 88.4 | 81.2 | 76.3 | 70.5 |  |  |  |  |  |  |  | 
anthocyanin [compound 2] |  |  |  |  |  |  |  |  | 97.2 | 94.5 | 91.8 | 88.8 | 86.5 | 78.5 | 74.5 | 69.5
